Here are results for 1 compound from patent publication US20020159981A1, “Methods of controlling proliferation and differentiation of stem and progenitor cells” (Gamida-Cell Ltd., priority 1999, published 2002).

For series [1], the system named is Cord blood-derived CD34 cells. The series is described as follows: Short-term liquid culture of CD34 cells: cell number, CD34 cells, colony forming cells. It counts as cell-based, human. The procedure: The interphase layer of mononuclear cells were collected, washed three times with Ca/Mg free phosphate buffered saline containing 1% bovine serum albumin (BSA). The cells were incubated for 30 min. at 4° C. with murine monoclonal anti CD34 antibody (0.5 μg/10^6 mononuclear cells) and thereafter isolated using the miniMACS apparatus (Miltenyi-Biotec, Bergisch, Gladbach, Germany) according to the manufacturer's protocol.
(§1) Culture procedures: For the expansion of progenitor cells, CD34^+ enriched fractions or unseparated mononuclear cells were seeded at about 1-3×10^4 cells/ml in either alpha minimal essential medium containing 10% preselected fetal calf serum (FCS) (both from GIBCO, Grand Island, N.Y.), or serum-free medium (Progenitor-34 medium, Life Technologies, Grand Island, N.Y.). The media were supplemented with a mixture of growth factors and transition metal chelators. The cultures were incubated at 37° C. in an atmosphere of 5% CO2 in air with extra humidity. Half of the medium was changed weekly with fresh medium containing all the supplements.
(§2) Cloning potential evaluations: The cloning potential of cells developed in the liquid culture was assayed, at different intervals, in semi-solid medium. The cells were washed and seeded in 35 mm dishes in methylcellulose containing alpha medium supplemented with recombinant growth factors (SCF, G-CSF, GM-CSF and EPO). Following 2 weeks incubation, the cultures were scored with an inverted microscope. Colonies were classified as blast, mixed, erythroid, myeloid, and megakaryocytic, according to their cellular composition.
Immunofluorescence staining: At different intervals, cells from the liquid cultures were assayed for CD34 antigen. Aliquots were harvested, washed and incubated on ice with FITC-labeled anti CD45 monoclonal antibody and either PE-labeled anti CD34 (HPCA-2) monoclonal antibody or PE-labeled control mouse Ig. After incubation, red cells were lysed with lysing solution, while the remaining cells were washed and analyzed by flow cytometer.
Flow cytometry: Cells were analyzed and sorted using FACStarPlus flow cytometer (Becton-Dickinson, Immunofluorometry systems, Mountain View, Calif.). Cells were passed at a rate of 1,000 cells/second through a […] nozzle, using saline as the sheath fluid. A 488 nm argon laser beam at 250 mW served as the light source for excitation. […] The PMTs was set at the appropriate voltage. Logarithmic amplification was applied for measurements of fluorescence and linear amplification—for forward light scatter. At least 10^4 cells were analyzed.
Cord blood-derived CD34 cells were plated in liquid culture in the presence of: FL—50 ng/ml, SCF—50 ng/ml, IL-6—50 ng/ml, with or without IL-3—20 ng/ml, with or without TEPA—10 μM. On day 7, the percentage of CD34 cells and the total cell number were determined. Aliquots equivalent to 1×10^3 initiating cells were assayed on days 0 and 7 for colony forming cells (CFU) by cloning in semi-solid medium. CFU expansion represents the ratio of CFU present on day 7 to CFU present on day 0.

Series [2] deals with Cord blood-derived CD34 cells. Briefly: Long-term liquid culture of CD34 cells: proliferation, CFUc, differentiation status. The format is cell-based, human. Here is the method:
as §1, §2
Morphological assessment: In order to characterize the resulting culture populations, aliquots of cells were deposited on a glass slide (cytocentrifuge, Shandon, Runcorn, UK), fixed and stained in May-Grunwald Giemsa. Other aliquots were stained by benzidine for intracellular hemoglobin.
TEPA effects on proliferation and clonability of long-term CD34^+ cultures: Long-term cultures were maintained for 3-5 weeks by weekly demi-depopulation (one half of the culture volume was removed and replaced by fresh medium and cytokines).
CD34^+ cells derived from human neonatal cord blood were purified by immunomagnetic method and then cultured in liquid medium supplemented with cytokines either with or without transition metal chelators. At weekly intervals, the cultures were demi-depopulated by removing half of the culture content (supernatant and cells) and replacing it with fresh medium, cytokines and the chelators. At the indicated weeks the cellular content of the cultures were quantified for total cells (by a manual microscopic/hemocytometric method), for CD34^+ cells (by immuno-flow cytometry) and for clonogenic cells (by cloning the cells in cytokine-supplemented semi-solid medium). The cultures were initiated with 1×10^4 cells, 50-80% of which were CD34^+ and 25-50% of which were CFUc. The results presented in FIGS. 11 to 24 were calculated per 1×10^4 initiating cells (the numbers were multiplied by the dilution factors).

In another series the test system is Cord blood-derived cells. Briefly: Preservation of stem cells: storage and separation with TEPA, then long-term culture. The settings on record: cells stored 24 hours at 4° C. and separated with 10 μM TEPA; without TEPA 5 weeks. The format is cell-based. Here is the method: Cord blood-derived cells were collected and stored (unseparated) for 24 hours, at 4° C., either in the presence or absence of 10 μM TEPA. CD34^+ cells were then separated using either 10 μM TEPA-PBS buffer or TEPA free PBS buffer, respectively. Then, cells were grown in long-term cultures in the presence of 10 μM TEPA.

For a further series, the system named is embryonal stem cells. Briefly: Embryonal stem cell culture: differentiation and proliferation. The format is cell-based. The procedure: Thus, embryonal stem cells were cultured for 3-4 days essentially as described in (66), in the presence of LIF (20-100 ng/ml) or TEPA (10-20 μM) and their differentiation compared to non-treated control cells.
A further series deals with Hepatocytes. The series is described as follows: Ex-vivo expansion of hepatocytes. The settings on record: 15 μg/ml TEPA, five weeks (FIGS. 27a-d). The format is cell-based, BALB/c mice. Here is the method:
Hepatocytes: Livers were dissected from anesthetized BALB/c mice with sterile tools and immersed into F12 culture medium (Biological Industries, Kibbutz Bet Ha'Emek, Israel). The livers were washed three times with 3% BSA/PBS buffer and minced into small pieces with seizures. Following three washes with 3% BSA/PBS the liver tissue pieces were incubated for 30 minutes with 0.05% collagenase at 37° C. with continues shaking under 5% CO2 atmosphere. The digested liver tissue pieces were than mashed by pressing through a fine mesh strainer. After three washes with 3% BSA/PBS the liver cells were seeded into F12 culture medium enriched with: 15 mM HEPES buffer, […], 10 mM sodium bicarbonate, 0.5 u/ml insulin, 7.5 ng/ml hydrocortisone and with or without 15 μg/ml of TEPA and incubated at 37° C. in a 5% CO2 atmosphere. After overnight incubation the medium was removed and the cells were supplemented with fresh enriched F12 medium as described above with or without 15 μg/ml of TEPA. Hepatocytes were incubated in 35 mm dishes for several weeks with enriched F12 culture medium with or without 15 μg/ml TEPA at 37° C. under 5% CO2 atmosphere. Cell culture medium was replaced every week with a fresh medium.

The mark [3] stands for this setting: high doses of early cytokines or early- and late-acting cytokines (Table 1, FIG. 3).

Each structure is given as a SMILES string.

In the case of `NCCNCCNCCNCCN` [TEPA, tetraethylenepentamine], the “Cells/ml (×10^4)” value in series [1] (TEPA 10 μM, without IL-3, FL, SCF, IL-6 50 ng/ml each, day 7) was 2 ×10^4 cells/ml. Also, the total cell number result in series [1] (cultures supplemented with both early and late cytokines (FIG. 3)) is reported as “marginal inhibition”; in series [1] (low doses of early-acting cytokines, compared to cytokines only (FIG. 2)), “significant increase”. Also, the clonability entry in series [1] (setting [3]) is given as “significantly increased”. In addition, in series [1] (setting [3]), the “percentage of CD34^+ cells” value is listed as “significantly increased”. The cell clonability entry in series [1] (low doses of early-acting cytokines, colonies in semi-solid medium (FIG. 1)) is listed as “significant increase”. Moreover, the “number of CD34^+ cells” value in series [1] (low doses of early-acting cytokines, flow cytometry (FIG. 2)) was “significant increase”. In addition, in series [2], the “activity on differentiation of CD34^+ cells” value is listed as “inhibit differentiation”. Besides, the “clonability in long-term cultures” value in series [2] (3-5 weeks, early or early and late cytokines, compared to cytokines only (FIGS. 3, 4)) is “higher clonability”. Besides, in series [2] (G-CSF and GM-CSF 10 ng/ml each, CFUc frequency (FIG. 15)), the “differentiation stimulatory effect of G-CSF and GM-CSF” value is listed as “blocked”. Moreover, in series [2] (after 6 weeks, started with 2.5×10^3 CFUc, TEPA 10 μM), the “CFUc in culture upon termination” value is listed as 300×10^3 CFUc. Also, the “time cultures could be maintained” value in series [2] (early-acting cytokines, no stromal cells, TEPA 10 μM (FIG. 11)) is greater than 6 weeks. Besides, the “effectiveness among polyamine chelating agents” value in series [2] (long term cultures (FIGS. 21a-b)) is reported as “more effective than the short-chain polyamines”. Besides, the “cell proliferation and generation of CFUc in long-term cultures” value in series [2] (long-term cultures (FIGS. 21, 22)) was “support continuous cell proliferation and long-term generation of CFUc and to delay cell differentiation”. Moreover, the “concentrations with optimal activity” value in series [2] (polyamine chelating agents, weeks 3, 4, 6, 7 (FIGS. 21a-b)) came out at 40 µM; in series [2] (transition metal chelating agents, weeks 4, 5, 7 (FIGS. 22a-b)) it was 10 µM. In the series on Cord blood-derived cells, this compound registered a time cultures expanded of 8 weeks. Besides, the “maintaining the undifferentiative phenotype of embryonal stem cells” value in the series on embryonal stem cells is on record as “can replace LIF”. Further, the “state of hepatocytes cultures” value in the series on Hepatocytes is “contained many dividing and undifferentiated cells”.
